Measured values as given in PubChem BioAssay (NCI).
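Interpolation was linear, between the two tested concentrations surrounding the appropriate level; five concentrations were tested over 48 hours in 96-well plates. TGI: total growth inhibition.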

Key:
Test in all cases: DTP human tumour cell line panel, 48 h
A549 NSCLC = test system: A549 NSCLC
DLD-1 colon = test system: DLD-1 colon
OVCAR-5 ovarian = test system: OVCAR-5 ovarian
IGROV1 ovarian = test system: IGROV1 ovarian
OVCAR-3 ovarian = test system: OVCAR-3 ovarian
UO-31 renal = test system: UO-31 renal
SK-MEL-2 melanoma = test system: SK-MEL-2 melanoma
DMS 114 small cell lung = test system: DMS 114 small cell lung
U251 CNS = test system: U251 CNS
HT29 colon = test system: HT29 colon
SF-295 CNS = test system: SF-295 CNS
OVCAR-8 ovarian = test system: OVCAR-8 ovarian
SNB-19 CNS = test system: SNB-19 CNS
XF 498 CNS = test system: XF 498 CNS
HOP-62 NSCLC = test system: HOP-62 NSCLC
HOP-92 NSCLC = test system: HOP-92 NSCLC
SN12C renal = test system: SN12C renal
NCI-H23 lung = test system: NCI-H23 lung
M19-MEL melanoma = test system: M19-MEL melanoma
HCT-116 colon = test system: HCT-116 colon
HL-60(TB) leukemia = test system: HL-60(TB) leukemia
M14 melanoma = test system: M14 melanoma
TK-10 renal = test system: TK-10 renal
SK-OV-3 ovarian = test system: SK-OV-3 ovarian
UACC-257 melanoma = test system: UACC-257 melanoma
HCC-2998 colon = test system: HCC-2998 colon
RPMI-8226 leukemia = test system: RPMI-8226 leukemia
SK-MEL-28 melanoma = test system: SK-MEL-28 melanoma
EKVX NSCLC = test system: EKVX NSCLC
RXF-631 renal = test system: RXF-631 renal
RXF 393 renal = test system: RXF 393 renal
HOP-18 NSCLC = test system: HOP-18 NSCLC
UACC-62 melanoma = test system: UACC-62 melanoma
A498 renal = test system: A498 renal
SF-539 CNS = test system: SF-539 CNS
SW-620 colon = test system: SW-620 colon
ACHN renal = test system: ACHN renal
NCI-H226 lung = test system: NCI-H226 lung
NCI-H522 lung = test system: NCI-H522 lung
LOX IMVI melanoma = test system: LOX IMVI melanoma
NCI-H460 lung = test system: NCI-H460 lung
K-562 leukemia = test system: K-562 leukemia
MALME-3M melanoma = test system: MALME-3M melanoma
CCRF-CEM leukemia = test system: CCRF-CEM leukemia
OVCAR-4 ovarian = test system: OVCAR-4 ovarian
KM20L2 colon = test system: KM20L2 colon
786-0 renal = test system: 786-0 renal
MOLT-4 leukemia = test system: MOLT-4 leukemia
SF-268 CNS = test system: SF-268 CNS
SNB-78 CNS = test system: SNB-78 CNS
KM12 colon = test system: KM12 colon
LXFL 529 NSCLC = test system: LXFL 529 NSCLC
HCT-15 colon = test system: HCT-15 colon
CAKI-1 renal = test system: CAKI-1 renal
SNB-75 CNS = test system: SNB-75 CNS
SK-MEL-5 melanoma = test system: SK-MEL-5 melanoma
COLO 205 colon = test system: COLO 205 colon

Which TGI (A549 NSCLC) does the source give for `Cc1ncc(CCl)c2c1OC(C)(C)OC2` here?
The TGI was > 100 µM.

What about the TGI (DLD-1 colon) of the same molecule?
The TGI was > 100 µM.

And the TGI (OVCAR-5 ovarian)?
Its TGI is 40.3 µM.

What about the TGI (IGROV1 ovarian) of the same molecule?
The TGI was > 100 µM.

What about the TGI (OVCAR-3 ovarian) of the same molecule?
Its TGI is 69.7 µM.

And the TGI (UO-31 renal)?
Its TGI is > 100 µM.

What about the TGI (SK-MEL-2 melanoma) of the same molecule?
Its TGI is > 100 µM.

And the TGI (DMS 114 small cell lung)?
Its TGI is > 100 µM.

And the TGI (U251 CNS)?
Its TGI is 27.5 µM.

And the TGI (HT29 colon)?
The TGI was > 100 µM.

What about the TGI (SF-295 CNS) of the same molecule?
The TGI was > 100 µM.

And the TGI (OVCAR-8 ovarian)?
Its TGI is > 100 µM.

And the TGI (SNB-19 CNS)?
Its TGI is > 100 µM.

What about the TGI (XF 498 CNS) of the same molecule?
The TGI was > 100 µM.

What about the TGI (HOP-62 NSCLC) of the same molecule?
Its TGI is > 100 µM.

And the TGI (HOP-92 NSCLC)?
Its TGI is 73.1 µM.

What about the TGI (SN12C renal) of the same molecule?
The TGI was > 100 µM.

And the TGI (NCI-H23 lung)?
The TGI was > 100 µM.

What about the TGI (M19-MEL melanoma) of the same molecule?
The TGI was > 100 µM.

And the TGI (HCT-116 colon)?
Its TGI is 65.8 µM.

What about the TGI (HL-60(TB) leukemia) of the same molecule?
Its TGI is 65.2 µM.

And the TGI (M14 melanoma)?
The TGI was > 100 µM.

And the TGI (TK-10 renal)?
The TGI was > 100 µM.

What about the TGI (SK-OV-3 ovarian) of the same molecule?
Its TGI is > 100 µM.

And the TGI (UACC-257 melanoma)?
The TGI was > 100 µM.

What about the TGI (HCC-2998 colon) of the same molecule?
Its TGI is > 100 µM.

And the TGI (RPMI-8226 leukemia)?
The TGI was > 100 µM.

And the TGI (SK-MEL-28 melanoma)?
The TGI was 56.6 µM.

And the TGI (EKVX NSCLC)?
Its TGI is 41.4 µM.

And the TGI (RXF-631 renal)?
The TGI was 73.9 µM.

And the TGI (RXF 393 renal)?
The TGI was 29.5 µM.

What about the TGI (HOP-18 NSCLC) of the same molecule?
The TGI was 36 µM.

And the TGI (UACC-62 melanoma)?
Its TGI is > 100 µM.

What about the TGI (A498 renal) of the same molecule?
The TGI was > 100 µM.

And the TGI (SF-539 CNS)?
The TGI was > 100 µM.

What about the TGI (SW-620 colon) of the same molecule?
Its TGI is 34 µM.

And the TGI (ACHN renal)?
The TGI was 45.4 µM.

And the TGI (NCI-H226 lung)?
The TGI was > 100 µM.

And the TGI (NCI-H522 lung)?
Its TGI is 32.6 µM.

What about the TGI (LOX IMVI melanoma) of the same molecule?
Its TGI is 33.5 µM.

What about the TGI (NCI-H460 lung) of the same molecule?
The TGI was > 100 µM.

What about the TGI (K-562 leukemia) of the same molecule?
The TGI was > 100 µM.

And the TGI (MALME-3M melanoma)?
The TGI was 37 µM.

What about the TGI (CCRF-CEM leukemia) of the same molecule?
The TGI was > 100 µM.

And the TGI (OVCAR-4 ovarian)?
The TGI was 28.4 µM.

And the TGI (KM20L2 colon)?
Its TGI is > 100 µM.

What about the TGI (786-0 renal) of the same molecule?
The TGI was 41.2 µM.

And the TGI (MOLT-4 leukemia)?
The TGI was > 100 µM.

And the TGI (SF-268 CNS)?
Its TGI is 53.6 µM.

What about the TGI (SNB-78 CNS) of the same molecule?
The TGI was > 100 µM.

What about the TGI (KM12 colon) of the same molecule?
The TGI was > 100 µM.

And the TGI (LXFL 529 NSCLC)?
The TGI was > 100 µM.

`CC1=NC(C(=O)O)Cc2c1[nH]c1ccccc21` (centres undefined) was tested. Which TGI (DLD-1 colon) did it give?
Its TGI is > 100 µM.

And the TGI (IGROV1 ovarian)?
The TGI was > 100 µM.

What about the TGI (OVCAR-3 ovarian) of the same molecule?
Its TGI is > 100 µM.

What about the TGI (HCT-15 colon) of the same molecule?
The TGI was > 100 µM.

And the TGI (UO-31 renal)?
The TGI was > 100 µM.

And the TGI (SK-MEL-2 melanoma)?
Its TGI is > 100 µM.

And the TGI (DMS 114 small cell lung)?
The TGI was > 100 µM.

And the TGI (U251 CNS)?
The TGI was > 100 µM.

What about the TGI (HT29 colon) of the same molecule?
Its TGI is > 100 µM.

What about the TGI (SF-295 CNS) of the same molecule?
The TGI was > 100 µM.

What about the TGI (OVCAR-8 ovarian) of the same molecule?
Its TGI is > 100 µM.

What about the TGI (SNB-19 CNS) of the same molecule?
The TGI was > 100 µM.

What about the TGI (XF 498 CNS) of the same molecule?
The TGI was > 100 µM.

And the TGI (HOP-92 NSCLC)?
Its TGI is > 100 µM.

And the TGI (SN12C renal)?
Its TGI is > 100 µM.

What about the TGI (NCI-H23 lung) of the same molecule?
Its TGI is > 100 µM.

And the TGI (M19-MEL melanoma)?
The TGI was > 100 µM.

What about the TGI (CAKI-1 renal) of the same molecule?
The TGI was > 100 µM.

And the TGI (HL-60(TB) leukemia)?
The TGI was > 100 µM.

And the TGI (M14 melanoma)?
The TGI was > 100 µM.

What about the TGI (TK-10 renal) of the same molecule?
The TGI was > 100 µM.

What about the TGI (SK-OV-3 ovarian) of the same molecule?
Its TGI is > 100 µM.

What about the TGI (RPMI-8226 leukemia) of the same molecule?
Its TGI is > 100 µM.

And the TGI (SK-MEL-28 melanoma)?
Its TGI is > 100 µM.

And the TGI (EKVX NSCLC)?
Its TGI is > 100 µM.

What about the TGI (RXF-631 renal) of the same molecule?
The TGI was > 100 µM.

What about the TGI (HOP-18 NSCLC) of the same molecule?
Its TGI is > 100 µM.

And the TGI (UACC-62 melanoma)?
The TGI was > 100 µM.

What about the TGI (A498 renal) of the same molecule?
The TGI was > 100 µM.

What about the TGI (SNB-75 CNS) of the same molecule?
The TGI was > 100 µM.

And the TGI (SF-539 CNS)?
Its TGI is > 100 µM.

And the TGI (SK-MEL-5 melanoma)?
Its TGI is > 100 µM.

And the TGI (SW-620 colon)?
The TGI was > 100 µM.

What about the TGI (ACHN renal) of the same molecule?
The TGI was > 100 µM.

And the TGI (COLO 205 colon)?
Its TGI is > 100 µM.

What about the TGI (NCI-H226 lung) of the same molecule?
The TGI was > 100 µM.

And the TGI (NCI-H522 lung)?
Its TGI is > 100 µM.

And the TGI (LOX IMVI melanoma)?
The TGI was > 100 µM.

And the TGI (NCI-H460 lung)?
The TGI was > 100 µM.

And the TGI (K-562 leukemia)?
The TGI was > 100 µM.

And the TGI (MALME-3M melanoma)?
Its TGI is > 100 µM.

And the TGI (CCRF-CEM leukemia)?
The TGI was > 100 µM.

And the TGI (KM20L2 colon)?
The TGI was > 100 µM.

What about the TGI (MOLT-4 leukemia) of the same molecule?
The TGI was > 100 µM.

And the TGI (SF-268 CNS)?
Its TGI is > 100 µM.

And the TGI (SNB-78 CNS)?
Its TGI is > 100 µM.

And the TGI (LXFL 529 NSCLC)?
The TGI was > 100 µM.
